Measurements taken from publication PMC10025185, “A continuous in silico learning strategy to identify safety liabilities in compounds used in the leather and textile industry” (Archives of Toxicology, 2023).
Where two headings read alike, the source gives them in different places.

Tests used:
[1] = test system: CHO-K1 (Chinese hamster ovary cells); assay type: cell-based; conditions: 6 h with or without S9, 24 h without S9
Description: The in vitro micronucleus test is a genotoxicity test for the detection of micronuclei in the cytoplasm of interphase cells. Tests were conducted in the presence of the cytokinesis blocker cytochalasin B with three different treatment schedules: (i) short treatment for 6 h; (ii) short treatment for 6 h in the presence of an exogenous source of metabolic activation (cofactor supplemented S9 liver fraction); and (iii) extended treatment for 24 h.
CHO-K1 (Chinese hamster ovary cells, ATCC Item Number CCL-61) were cultured in DMEM F-12 containing 10% foetal bovine serum and 100 units/ml penicillin/100 μg/ml streptomycin (all from Sigma-Aldrich, St Louis, USA). Cells were seeded at 3000 cells/well in a collagen-coated 96-well plate in 100 μl. After 24 h, cells were incubated with CellTracker Orange CMTMR cellular dye solution (Invitrogen, Waltham, USA) for 1 h. Cells were then treated with compounds for 6 h, with or without S9 metabolic activation, or 24 h without S9 metabolic activation. […] After the 6-h compound treatment, cells were incubated with cytochalasin B (Alfa Aesar, Kandel, Germany) for 24 h. In case of 24-h treatment, cells were incubated with compounds in the presence of cytochalasin B and harvested after treatment. Benzo(a)pyrene, mitomycin C, and colchicine were used as positive controls for 6 h, with or without metabolic activation or 24 h treatments, respectively. […] After several washes with BupH-modified DPBS, cells were analysed in an Operetta High-Content Imaging System (PerkinElmer, Waltham, USA). […] Statistical significance was determined with the ANOVA test with significance level adjusted to p < 0.05.

[2] = test system: zebrafish embryos
From the text: In REACH, most of the mammalian tests for chemical safety assessment are related to reproductive toxicity (ECHA [2020]; Rovida and Hartung [2009]; Sellick [2011]) and consider complex molecular and cellular mechanisms determined in long-term experiments with very low throughput. To avoid the use of animals and to assay reproductive toxicity in a relevant 'non-animal' model adhering to the 3Rs rule, we used zebrafish embryos up to 120 hpf. Up to this developmental stage, the embryos are not considered animals according to European legislation (Sellick [2011]). When they reach the stage of independent feeding, zebrafish embryos become subject to regulations for animal experimentation. We performed a set of previously described experiments to cover a wide range of potential reprotoxic effects, including terato-carcinogenesis, developmental neurotoxicity, and endocrine disruption.
Zebrafish embryos obtained and maintained as described previously for toxicity determination were used to determine (I) terato-carcinogenesis assayed as previously informed (Selderslaghs et al. [2009], [2012]) with modifications. In brief, embryos were incubated for 0 hpf up to 120 hpf in the presence and absence of tested compounds. Each condition was assayed in triplicate with 12 embryos per condition per replicate. The appearance of selected characteristics and malformations with respect to normal development were quantified for the eyes, otoliths, heart, circulation, hatching, skeletal deformities, and body position. For each concentration tested, we assessed the mortality and the presence of malformations at 24, 48, 72, 96, and 120 hpf using a light microscope. When possible, the lethal effects (LC50) and terato-carcinogenic effects (EC50) were determined using the ToxRat software. Based on these values, a teratogenic index (TI) was calculated as LC50/EC50. Based on previous studies, we considered a compound to be a teratogen when TI > 2 at 120 hpf. When no TI could be calculated due to no malformations induction to a degree extensive enough to calculate the EC50 in the presence of high toxicity, the compound was considered a non-teratogen. (II) Neurotoxicity was assayed by evaluating the locomotor activity in embryos exposed to the tested compounds from 0 to 120 hpf using Zebrabox and Zebralab (ViewPoint). We tested three concentrations (24 embryos per concentration) below the NOEC to avoid readily toxic concentrations. After incubation with tested compounds for 120 hs in 96-well plates, the activity of larvae in response to transitions from dark to light was evaluated. The protocol involved an initial 10 min acclimation period inside the Zebrabox, followed by three cycles of light–dark of 10 min each. After the end of each cycle, the integrated activity of each embryo was registered. Statistical analysis was done using ANOVA, followed by the Tukey post hoc test. Differences were considered significant when p < 0.05. Dead embryos were not considered in the analysis. (III) The endocrine-disrupting effect in zebrafish embryos was assayed by real-time PCR as previously reported (Jarque et al. [2019]) with modifications. In brief, 0 hpf embryos (12 embryos per condition in triplicate) were incubated with selected compounds for up to 120 hpf. After incubation, treated (embryos incubated at the concentration right below the NOEC) and control embryos were collected in RNA later and kept at − 20°C until use. RNA was extracted from the samples using the RNeasy Mini Kit (QIAGEN) and was followed by cDNA synthesis using random primers and the AffinityScript Multi Temperature cDNA Synthesis Kit (Agilent Technologies).

[3] = 0 to 120 hpf, teratogen when TI > 2

Compound | Micronucleus assay (M) [1] | Reprotoxicity (R) Teratogen ([2]; in vivo) | Reprotoxicity (R) Experimental conclusion ([2]; in vivo) | Reprotoxicity (R) Teratogen [2, 3] | Reprotoxicity (R) Experimental conclusion ([2]; positive in any of the three assays)
CCCCC(CC)CN (stereo not shown) [2-Ethylhexylamine] | Negative | No | – | – | –
CNC(=O)c1cc(Cl)ccn1.Cl [4-Chloro-N-methylpyridine-2-carboxamide hydrochloride (1:1)] | Negative | No | No | – | –
Reaction mass of cis-4-(isopropyl) cyclohexanemethanol and trans-4-(isopropyl) cyclohexanemethanol | Negative | – | – | No | No
O=C(OCCc1ccccc1)c1ccccc1 [Phenethyl benzoate] | Negative | No | No | – | –
CCN(CC)c1ccc(N=Nc2c(Cl)cc([N+](=O)[O-])cc2[N+](=O)[O-])c(NC(C)=O)c1 [N-[2-[(2-chloro-4,6-dinitrophenyl)azo]-5-(diethylamino)phenyl]acetamide] | Negative | – | – | No | –
